Laboratory results reported in ChEMBL document CHEMBL1201862, “PubChem BioAssay data set” (2004).
Active and inactive are the calls of the source.

How the values were obtained:
[1] = tested on: HEK293; test: NOD2 signaling inhibitors in MDP-stimulated cells, cell-based, uHTS, luminescence (AID 2001); type: functional; settings: Homo sapiens
[2] = tested on: HEK293; test: cells; type: functional, cell-based; settings: Homo sapiens
[3] = biological target: Nucleotide-binding oligomerization domain-containing protein 1 (Homo sapiens, UniProt Q9Y239); test: blockers of NOD1 pathway activity – revised, SAR follow-up (AID 2333); type: functional
Sequence of Nucleotide-binding oligomerization domain-containing protein 1 (Q9Y239 whole entry, the tested form may be a part): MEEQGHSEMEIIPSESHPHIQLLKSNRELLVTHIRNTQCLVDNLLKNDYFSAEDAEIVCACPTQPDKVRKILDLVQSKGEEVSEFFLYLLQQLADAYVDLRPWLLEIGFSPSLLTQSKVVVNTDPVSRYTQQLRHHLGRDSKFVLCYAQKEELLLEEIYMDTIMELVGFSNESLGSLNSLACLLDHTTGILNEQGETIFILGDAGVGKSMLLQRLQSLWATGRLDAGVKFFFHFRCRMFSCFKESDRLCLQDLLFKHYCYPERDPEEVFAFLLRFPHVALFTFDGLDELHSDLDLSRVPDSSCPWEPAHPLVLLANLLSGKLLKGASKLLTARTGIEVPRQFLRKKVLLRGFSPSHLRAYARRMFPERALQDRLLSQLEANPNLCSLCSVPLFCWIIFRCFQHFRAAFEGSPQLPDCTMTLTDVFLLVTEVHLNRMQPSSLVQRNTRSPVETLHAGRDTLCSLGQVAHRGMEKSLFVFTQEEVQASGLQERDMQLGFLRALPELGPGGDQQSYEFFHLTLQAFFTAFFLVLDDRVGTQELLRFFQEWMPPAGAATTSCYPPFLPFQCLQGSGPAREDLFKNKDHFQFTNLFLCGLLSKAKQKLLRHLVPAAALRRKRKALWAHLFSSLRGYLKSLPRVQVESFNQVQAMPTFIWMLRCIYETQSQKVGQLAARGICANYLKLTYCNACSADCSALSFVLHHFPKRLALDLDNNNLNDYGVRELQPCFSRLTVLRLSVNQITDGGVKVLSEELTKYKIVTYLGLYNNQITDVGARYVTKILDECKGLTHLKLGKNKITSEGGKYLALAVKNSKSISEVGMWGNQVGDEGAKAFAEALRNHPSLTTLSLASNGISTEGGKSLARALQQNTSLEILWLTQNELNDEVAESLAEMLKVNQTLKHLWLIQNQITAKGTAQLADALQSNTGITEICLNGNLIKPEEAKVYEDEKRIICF

[4] = reduction of Shn3 3'UTR-driven luciferase in osteoblasts – cell-based, Clone20 osteoblasts, firefly luciferase, cherry-picked, dose response (AID 624132); type: functional;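 also: firefly luciferase luminescence from reporter carrying the Shn3 3'UTR in osteoblasts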
[5] = non-specific 3'UTR reporter inhibition in Clone20-Shn3RL – cell-based, Renilla luciferase, cherry-picked, counter-screen for Shn3 inhibitor project, dose response (AID 624133); type: functional
[6] = loss of viability in HepG2 cells – cell-based, CellTiter-Glo, cherry-picked, cytotoxicity control for Shn3 inhibitor project, dose response (AID 624134); type: functional
[7] = tested on: HEK293; test: cells; settings: Homo sapiens
[8] = tested on: HEK293; test: cells; type: functional, cell-based; settings: Homo sapiens; remark: listed apart in the source
[9] = tested on: INS1; test: INS-1E survival protection against cytokine death – cell-based, luminescence, retest, dose response (AID 449756); type: functional; settings: Rattus norvegicus;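 also: cell death triggered by IL-1 beta plus TNF-alpha plus IFN-gamma mixture; protective hits raise ATP signal compared with cytokine alone wells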
[10] = tested on: HEK293; test: inhibition of NOD1-driven NF-kB reporter – cell-based, luminescence, uHTS, primary screen (AID 1578); type: functional; settings: Homo sapiens
[11] = biological target: T1, Voltage-gated N-type calcium channel alpha-1B subunit/Amyloid beta A4 precursor protein-binding family A member 1 (Homo sapiens, UniProt Q00975+Q02410); type: protein assay
T1 sequence (Q00975 whole entry): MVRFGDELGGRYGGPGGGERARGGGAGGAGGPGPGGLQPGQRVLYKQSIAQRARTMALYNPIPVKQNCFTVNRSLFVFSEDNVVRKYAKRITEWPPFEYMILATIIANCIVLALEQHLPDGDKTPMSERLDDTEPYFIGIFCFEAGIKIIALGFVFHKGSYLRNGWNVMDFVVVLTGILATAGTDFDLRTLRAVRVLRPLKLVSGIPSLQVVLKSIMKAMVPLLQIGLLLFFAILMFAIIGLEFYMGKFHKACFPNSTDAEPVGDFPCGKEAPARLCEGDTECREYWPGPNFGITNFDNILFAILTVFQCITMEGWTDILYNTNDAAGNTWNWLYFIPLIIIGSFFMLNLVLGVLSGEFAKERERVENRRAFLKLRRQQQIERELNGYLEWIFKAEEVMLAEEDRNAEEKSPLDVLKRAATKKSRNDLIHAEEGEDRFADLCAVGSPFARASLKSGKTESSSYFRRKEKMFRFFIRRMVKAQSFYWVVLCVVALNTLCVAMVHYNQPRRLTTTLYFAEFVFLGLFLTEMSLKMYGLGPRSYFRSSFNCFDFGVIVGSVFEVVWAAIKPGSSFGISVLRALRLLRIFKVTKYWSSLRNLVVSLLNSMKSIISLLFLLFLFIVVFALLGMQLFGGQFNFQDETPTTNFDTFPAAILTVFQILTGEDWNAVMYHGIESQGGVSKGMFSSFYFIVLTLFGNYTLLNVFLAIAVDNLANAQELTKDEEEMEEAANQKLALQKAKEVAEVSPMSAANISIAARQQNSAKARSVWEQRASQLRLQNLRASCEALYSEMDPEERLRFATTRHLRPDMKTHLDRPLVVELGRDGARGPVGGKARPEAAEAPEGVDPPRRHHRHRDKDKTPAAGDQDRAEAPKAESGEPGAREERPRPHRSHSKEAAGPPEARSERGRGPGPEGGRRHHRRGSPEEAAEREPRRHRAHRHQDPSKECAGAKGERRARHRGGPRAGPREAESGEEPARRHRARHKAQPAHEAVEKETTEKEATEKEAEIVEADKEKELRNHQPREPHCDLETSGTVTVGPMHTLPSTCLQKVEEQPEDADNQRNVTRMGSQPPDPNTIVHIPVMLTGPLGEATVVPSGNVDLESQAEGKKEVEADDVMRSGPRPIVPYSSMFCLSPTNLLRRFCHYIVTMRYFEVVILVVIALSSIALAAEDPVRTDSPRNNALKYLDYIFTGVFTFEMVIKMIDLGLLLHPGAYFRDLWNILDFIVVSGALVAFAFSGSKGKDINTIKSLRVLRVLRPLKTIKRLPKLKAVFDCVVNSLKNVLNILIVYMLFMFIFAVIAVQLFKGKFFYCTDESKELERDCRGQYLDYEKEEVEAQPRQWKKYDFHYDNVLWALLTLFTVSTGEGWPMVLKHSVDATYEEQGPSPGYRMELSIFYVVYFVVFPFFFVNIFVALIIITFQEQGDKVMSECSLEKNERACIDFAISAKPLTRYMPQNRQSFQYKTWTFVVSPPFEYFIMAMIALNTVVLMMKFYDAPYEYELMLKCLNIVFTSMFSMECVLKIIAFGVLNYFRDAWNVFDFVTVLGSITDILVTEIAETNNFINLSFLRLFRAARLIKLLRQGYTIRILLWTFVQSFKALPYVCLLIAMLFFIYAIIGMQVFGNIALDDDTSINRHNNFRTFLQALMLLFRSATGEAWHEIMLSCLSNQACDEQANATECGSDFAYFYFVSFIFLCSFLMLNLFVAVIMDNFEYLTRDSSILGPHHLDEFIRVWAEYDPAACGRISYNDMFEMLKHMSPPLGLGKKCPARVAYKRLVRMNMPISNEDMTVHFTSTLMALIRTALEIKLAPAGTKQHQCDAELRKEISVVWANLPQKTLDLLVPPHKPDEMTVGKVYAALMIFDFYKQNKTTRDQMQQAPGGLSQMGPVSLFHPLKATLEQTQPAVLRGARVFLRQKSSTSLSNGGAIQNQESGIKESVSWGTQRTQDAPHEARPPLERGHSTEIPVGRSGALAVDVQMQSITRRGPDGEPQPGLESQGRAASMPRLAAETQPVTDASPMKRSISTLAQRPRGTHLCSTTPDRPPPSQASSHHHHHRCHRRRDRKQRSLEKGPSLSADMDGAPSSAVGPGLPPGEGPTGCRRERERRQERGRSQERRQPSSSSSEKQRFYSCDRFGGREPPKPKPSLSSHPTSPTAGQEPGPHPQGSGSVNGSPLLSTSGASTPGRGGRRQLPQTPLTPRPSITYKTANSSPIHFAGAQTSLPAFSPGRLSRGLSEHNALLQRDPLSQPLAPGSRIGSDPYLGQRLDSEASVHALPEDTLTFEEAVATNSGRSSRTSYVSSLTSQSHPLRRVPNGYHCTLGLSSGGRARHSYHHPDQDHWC
T1 sequence (Q02410 whole entry): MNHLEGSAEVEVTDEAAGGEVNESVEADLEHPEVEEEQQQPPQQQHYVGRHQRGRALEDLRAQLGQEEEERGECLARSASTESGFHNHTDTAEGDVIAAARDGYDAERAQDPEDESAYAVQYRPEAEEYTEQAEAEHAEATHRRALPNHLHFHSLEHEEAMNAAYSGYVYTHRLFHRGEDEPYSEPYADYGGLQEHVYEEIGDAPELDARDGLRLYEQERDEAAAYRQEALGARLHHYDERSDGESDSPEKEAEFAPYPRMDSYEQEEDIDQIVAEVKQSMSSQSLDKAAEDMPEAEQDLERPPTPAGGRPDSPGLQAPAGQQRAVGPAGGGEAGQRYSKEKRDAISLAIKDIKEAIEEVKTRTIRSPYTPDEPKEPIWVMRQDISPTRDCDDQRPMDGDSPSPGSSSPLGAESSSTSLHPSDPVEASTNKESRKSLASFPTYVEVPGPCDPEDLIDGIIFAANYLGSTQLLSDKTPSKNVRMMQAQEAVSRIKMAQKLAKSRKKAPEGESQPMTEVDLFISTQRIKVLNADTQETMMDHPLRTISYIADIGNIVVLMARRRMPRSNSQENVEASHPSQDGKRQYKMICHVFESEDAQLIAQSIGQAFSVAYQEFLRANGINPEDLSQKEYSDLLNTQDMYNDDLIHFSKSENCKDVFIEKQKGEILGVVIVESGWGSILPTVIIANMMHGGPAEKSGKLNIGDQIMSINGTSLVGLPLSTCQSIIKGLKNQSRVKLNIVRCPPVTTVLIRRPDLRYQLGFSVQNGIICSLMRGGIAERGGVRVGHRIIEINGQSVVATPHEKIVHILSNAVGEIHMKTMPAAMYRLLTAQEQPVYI

[12] = biological target: T2, Dual specificity protein phosphatase 3 (Homo sapiens, UniProt P51452); test: VHR1 phosphatase inhibitors, primary screen, biochemical, absorbance, uHTS (AID 1654)
T2 sequence (P51452 whole entry): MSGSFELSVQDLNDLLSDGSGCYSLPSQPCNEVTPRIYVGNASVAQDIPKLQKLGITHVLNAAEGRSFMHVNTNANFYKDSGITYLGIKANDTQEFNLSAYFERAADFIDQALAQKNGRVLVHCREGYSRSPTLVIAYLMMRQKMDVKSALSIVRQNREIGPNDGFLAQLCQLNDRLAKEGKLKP

[13] = biological target: T3, Protein RecA (Mycobacterium tuberculosis, UniProt P9WHJ3); test: Fluorescence Cell-Free Homogeneous Dose Retest to Identify Inhibitors of RecA-Intein Splicing Activity. [Related pubchem assays (depositor defined):AID2097, AID2223, AID489010, AID492950]; type: functional
T3 sequence (P9WHJ3 whole entry): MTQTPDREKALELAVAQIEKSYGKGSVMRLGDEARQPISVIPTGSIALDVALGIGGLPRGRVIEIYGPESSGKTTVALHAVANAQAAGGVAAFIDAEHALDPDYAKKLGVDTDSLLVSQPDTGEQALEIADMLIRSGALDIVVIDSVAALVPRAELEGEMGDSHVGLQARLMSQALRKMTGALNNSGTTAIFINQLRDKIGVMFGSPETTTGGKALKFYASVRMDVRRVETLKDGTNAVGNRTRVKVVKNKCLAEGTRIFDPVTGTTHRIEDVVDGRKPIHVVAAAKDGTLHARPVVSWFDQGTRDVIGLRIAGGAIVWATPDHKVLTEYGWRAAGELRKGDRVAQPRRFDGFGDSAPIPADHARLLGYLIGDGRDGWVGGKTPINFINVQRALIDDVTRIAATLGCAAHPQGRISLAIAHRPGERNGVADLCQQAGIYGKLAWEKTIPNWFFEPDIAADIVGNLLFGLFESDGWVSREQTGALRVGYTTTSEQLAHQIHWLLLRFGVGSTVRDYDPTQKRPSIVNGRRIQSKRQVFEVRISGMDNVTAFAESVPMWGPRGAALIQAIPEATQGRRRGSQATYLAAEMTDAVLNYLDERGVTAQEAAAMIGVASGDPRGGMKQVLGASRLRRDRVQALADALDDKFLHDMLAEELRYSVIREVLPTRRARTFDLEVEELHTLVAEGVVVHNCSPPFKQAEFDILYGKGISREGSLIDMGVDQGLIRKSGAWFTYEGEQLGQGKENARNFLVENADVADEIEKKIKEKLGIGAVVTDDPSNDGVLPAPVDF

[14] = biological target: T1, Voltage-gated N-type calcium channel alpha-1B subunit/Amyloid beta A4 precursor protein-binding family A member 1; type: protein assay; remark: listed apart in the source
[15] = biological target: Bcl-2-like protein 1 (Homo sapiens, UniProt Q07817); test: blockers of BCLXL peptide binding – biochemical, fluorescence polarization, 1536-well, selectivity assay for MCL1 inhibitor project, dose response (AID 2218)
[16] = biological target: Beta-galactosidase (Escherichia coli, UniProt Q8VNN2); test: detection-enzyme interference by beta-gal modulators – biochemical, E. coli enzyme, set 3, artefact control for CCR6 antagonist project, dose response (AID 504712); type: functional
[17] = biological target: T4, Replicative DNA helicase DnaB (Mycobacterium tuberculosis, UniProt P9WMR3); test: DnaB intein splicing inhibitors, dose response, biochemical, cell-free fluorescence (AID 449749); type: functional
T4 sequence (P9WMR3 whole entry): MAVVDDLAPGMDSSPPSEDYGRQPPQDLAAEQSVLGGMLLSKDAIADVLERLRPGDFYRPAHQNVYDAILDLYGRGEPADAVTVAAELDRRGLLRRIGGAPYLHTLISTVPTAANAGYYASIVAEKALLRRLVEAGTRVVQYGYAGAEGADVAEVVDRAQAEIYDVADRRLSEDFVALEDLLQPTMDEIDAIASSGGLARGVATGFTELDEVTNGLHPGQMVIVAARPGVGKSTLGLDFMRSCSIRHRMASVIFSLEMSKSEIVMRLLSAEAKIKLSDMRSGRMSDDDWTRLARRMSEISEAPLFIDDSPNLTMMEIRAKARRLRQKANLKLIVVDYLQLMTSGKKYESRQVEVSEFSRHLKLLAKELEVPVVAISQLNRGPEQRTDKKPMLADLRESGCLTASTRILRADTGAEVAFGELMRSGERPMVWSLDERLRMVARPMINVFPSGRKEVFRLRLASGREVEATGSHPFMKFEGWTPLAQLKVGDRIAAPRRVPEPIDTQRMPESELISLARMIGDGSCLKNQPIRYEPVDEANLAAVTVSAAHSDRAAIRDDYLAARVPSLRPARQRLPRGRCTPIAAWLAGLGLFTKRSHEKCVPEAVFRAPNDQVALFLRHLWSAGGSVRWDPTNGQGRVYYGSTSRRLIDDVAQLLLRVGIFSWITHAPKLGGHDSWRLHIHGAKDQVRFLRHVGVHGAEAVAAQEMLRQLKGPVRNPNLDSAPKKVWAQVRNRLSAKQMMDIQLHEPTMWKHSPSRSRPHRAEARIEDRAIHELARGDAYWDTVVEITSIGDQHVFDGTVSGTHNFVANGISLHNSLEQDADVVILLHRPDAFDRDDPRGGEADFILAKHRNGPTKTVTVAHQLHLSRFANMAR

[18] = biological target: Genome polyprotein (dengue virus type 2, UniProt P29990); test: flavivirus cap methylation enzyme inhibition – biochemical, confirmation dose response, primary screen (AID 588689); type: functional
[19] = biological target: Dual specificity protein phosphatase 6 (Rattus norvegicus, UniProt Q64346); test: inhibition of rat DUSP6 enzyme activity – biochemical, in vitro, primary screen (AID 425)
Sequence of Dual specificity protein phosphatase 6 (Q64346 whole entry): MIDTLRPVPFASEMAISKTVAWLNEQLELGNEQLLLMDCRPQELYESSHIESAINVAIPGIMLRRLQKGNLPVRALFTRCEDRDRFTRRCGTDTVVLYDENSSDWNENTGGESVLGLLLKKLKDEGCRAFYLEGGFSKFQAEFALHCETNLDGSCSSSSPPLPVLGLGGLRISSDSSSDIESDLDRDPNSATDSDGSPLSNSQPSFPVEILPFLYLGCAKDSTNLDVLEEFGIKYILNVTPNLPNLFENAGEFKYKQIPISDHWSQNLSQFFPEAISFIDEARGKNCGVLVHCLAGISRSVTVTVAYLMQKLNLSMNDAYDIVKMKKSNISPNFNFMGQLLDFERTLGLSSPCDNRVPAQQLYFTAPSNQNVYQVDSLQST

[20] = biological target: Induced myeloid leukemia cell differentiation protein Mcl-1 (Homo sapiens, UniProt Q07820); test: blockers of MCL1 binding to BIM peptide – biochemical, fluorescence polarization, BIM-BH3 peptide, 1536-well, dose response (AID 2217)
[21] = biological target: T2, Dual specificity protein phosphatase 3; test: VHR1 phosphatase inhibitors, biochemical (AID 1878)
[22] = biological target: Sphingosine 1-phosphate receptor 3 (Homo sapiens, UniProt Q99500); test: Late stage counterscreen assay for S1P4 antagonists: Fluorescence dose response cell-based screening assay for antagonists of the Sphingosine 1-Phosphate Receptor 3 (S1P3). [Related pubchem assays (depositor defined):AID1510, AID1524, AID1692, AID1853, AID2332, AID489009, AID489017]; type: functional
[23] = biological target: Sphingosine 1-phosphate receptor 2 (Homo sapiens, UniProt O95136); test: Late stage counterscreen assay for S1P4 antagonists: Fluorescence dose response cell-based screening assay for antagonists of the Sphingosine 1-Phosphate Receptor 2 (S1P2). [Related pubchem assays (depositor defined):AID1510, AID1524, AID1692, AID1853, AID2332, AID489009, AID489017]; type: functional
[24] = biological target: Sphingosine 1-phosphate receptor 5 (Homo sapiens, UniProt Q9H228); test: Late stage counterscreen assay for S1P4 antagonists: Fluorescence dose response cell-based screening assay for antagonists of the Sphingosine 1-Phosphate Receptor 5 (S1P5). [Related pubchem assays (depositor defined):AID1510, AID1524, AID1692, AID1853, AID2332, AID489009, AID489017]; type: functional
[25] = biological target: Sphingosine 1-phosphate receptor 1 (Homo sapiens, UniProt P21453); test: Late stage counterscreen assay for S1P4 antagonists: Fluorescence dose response cell-based screening assay for antagonists of the Sphingosine 1-Phosphate Receptor 1 (S1P1). [Related pubchem assays (depositor defined):AID1510, AID1524, AID1692, AID1853, AID2332, AID489009, AID489017]; type: functional
[26] = biological target: T5, Sphingosine 1-phosphate receptor 4 (Homo sapiens, UniProt O95977); test: potency of S1P4 blockers – cell-based, fluorescence, synthesized analogues, late-stage follow-up (AID 2346); type: functional
T5 sequence (O95977 whole entry): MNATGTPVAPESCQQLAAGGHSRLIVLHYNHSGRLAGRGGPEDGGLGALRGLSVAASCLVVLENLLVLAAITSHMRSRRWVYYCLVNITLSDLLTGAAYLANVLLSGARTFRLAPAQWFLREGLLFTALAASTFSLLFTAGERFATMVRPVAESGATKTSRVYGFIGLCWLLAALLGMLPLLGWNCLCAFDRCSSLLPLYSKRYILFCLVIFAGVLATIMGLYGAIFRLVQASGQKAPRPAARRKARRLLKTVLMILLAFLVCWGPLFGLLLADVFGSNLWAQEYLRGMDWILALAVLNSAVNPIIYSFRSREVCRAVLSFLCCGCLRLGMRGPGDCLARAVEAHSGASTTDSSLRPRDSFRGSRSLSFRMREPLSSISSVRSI

[27] = biological target: T6, Zinc finger protein mex-5 (Caenorhabditis elegans, UniProt Q9XUB2); test: potency of MEX-5 RNA-binding blockers – biochemical, C. elegans, fluorescence polarization, dose response (AID 1960)
T6 sequence (Q9XUB2 whole entry): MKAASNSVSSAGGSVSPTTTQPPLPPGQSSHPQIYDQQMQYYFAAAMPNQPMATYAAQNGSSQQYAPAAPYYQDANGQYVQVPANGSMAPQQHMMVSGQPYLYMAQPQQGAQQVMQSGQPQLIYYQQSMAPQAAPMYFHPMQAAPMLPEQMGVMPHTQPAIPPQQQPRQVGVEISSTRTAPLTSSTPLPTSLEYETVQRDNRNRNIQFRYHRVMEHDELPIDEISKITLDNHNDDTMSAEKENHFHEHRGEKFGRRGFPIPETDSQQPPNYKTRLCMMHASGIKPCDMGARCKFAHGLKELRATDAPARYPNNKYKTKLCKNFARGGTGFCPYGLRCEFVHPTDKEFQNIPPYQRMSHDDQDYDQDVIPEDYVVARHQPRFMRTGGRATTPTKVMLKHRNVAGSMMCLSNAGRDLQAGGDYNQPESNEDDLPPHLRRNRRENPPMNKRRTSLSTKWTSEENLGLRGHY

[28] = biological target: FAD-linked sulfhydryl oxidase ALR (Homo sapiens, UniProt P55789); test: ALR-catalysed DTT oxidation blockers – biochemical, H2O2 detection, luminescence, cherry-pick, dose response (AID 493248)
Sequence of FAD-linked sulfhydryl oxidase ALR (P55789 whole entry): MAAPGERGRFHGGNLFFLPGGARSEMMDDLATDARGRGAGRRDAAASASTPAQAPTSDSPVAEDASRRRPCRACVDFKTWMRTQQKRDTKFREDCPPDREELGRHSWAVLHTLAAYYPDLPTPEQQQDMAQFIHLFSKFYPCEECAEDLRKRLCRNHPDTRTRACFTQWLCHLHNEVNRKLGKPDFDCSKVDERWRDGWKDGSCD

[29] = biological target: Lysine-specific demethylase 4C (Homo sapiens, UniProt Q9H3R0); test: inhibition of JMJD2C H3K9me3 demethylation – biochemical, DELFIA europium, cherry-picked samples, dose response (AID 488835); type: functional
[30] = biological target: T7, RNA-binding protein pos-1 (Caenorhabditis elegans, UniProt G5EF15); test: disruptors of C. elegans POS-1 RNA interaction – biochemical, fluorescence polarization, dose response (AID 1964);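 also: purified POS-1 fused to maltose binding protein made in E. coli; potency of compounds blocking POS-1 binding to fluorescent RNA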
T7 sequence (G5EF15 whole entry): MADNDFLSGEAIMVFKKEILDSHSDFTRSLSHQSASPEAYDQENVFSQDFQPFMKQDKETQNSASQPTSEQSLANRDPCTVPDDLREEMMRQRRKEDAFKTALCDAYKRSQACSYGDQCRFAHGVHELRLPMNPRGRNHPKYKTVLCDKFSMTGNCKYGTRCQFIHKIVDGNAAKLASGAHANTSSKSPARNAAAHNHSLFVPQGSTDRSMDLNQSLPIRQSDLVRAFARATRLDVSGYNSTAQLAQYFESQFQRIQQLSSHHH

SMILES: CC1Sc2ccc(S(=O)(=O)N3CCC(C(=O)Nc4ccc(Cl)cc4)CC3)cc2NC1=O (stereo not given)
- IC50 [1]: 3.93 µM (active)
- IC50 [2]: 8.24 µM (active)
- IC50 [3]: 3.11 µM (active)
- AC50 [4]: 2.42 µM (active)
- AC50 [5]: 1.6 µM (active)
- AC50 [6]: 3.26 µM (active)
- IC50 [7]: 7.68 µM (active)
- IC50 [8]: 3.16 µM (active)
- AC50 [9]: 4.55 µM (active)
- EC50 [10]: 2.15 µM (active)

SMILES: O=C(CN1C(=O)/C(=C2\SC(=S)N(CCS(=O)(=O)O)C2=O)c2ccccc21)Nc1cccc(Br)c1
- IC50 [11]: 9.59 µM (active)
- IC50 [12]: 3.65 µM (active)
- EC50 [13]: 7.59 µM (active)
- IC50 [14]: > 50 µM (inactive)
- IC50 [15]: > 109 µM (not active)
- IC50 [16]: > 66.6 µM (inactive)
- AC50 [17]: 12.4 µM (active)
- IC50 [18]: 21.6 µM (active)
- IC50 [19]: 30 µM (active)
- IC50 [20]: 2 µM (active)
- IC50 [21]: 4.92 µM (active)

SMILES: Cc1ccccc1NC(=O)c1ccc(-c2cc(Cl)ccc2Cl)o1
- IC50 [22]: > 25 µM (inactive)
- IC50 [23]: > 25 µM (inactive)
- IC50 [24]: > 25 µM (inactive)
- IC50 [25]: > 25 µM (inactive)
- IC50 [26]: 0.393 µM (active)

SMILES: Oc1cc2c(cc1O)C(c1ccccc1)CNCC2 (stereo not given)
- EC50 [27]: 24 µM (active)
- AC50 [28]: 5.38 µM (active)
- AC50 [29]: 15.2 µM (active)
- EC50 [30]: 109 µM (active)
